Data from patent US12540118B2, “Dendrene amide compound, bactericide and use thereof” (Jiangsu Flag Chemical Industry Co., Ltd., priority 2020, dated 2026).
Read-outs that look alike come from different tables or passages of the source.

Columns and labels:
Alternaria solani = experiment: Mycelial growth rate method; assay type: cell-based
[1] = system: Fusarium wilt of water melon; experiment: Mycelial growth rate method; assay type: cell-based
Phytophthora capsici = experiment: Mycelial growth rate method; assay type: cell-based
Sclerotinia sclerotiorum = experiment: Mycelial growth rate method; assay type: cell-based
Gibberella zeae = assay type: cell-based
Rhizoctonia cerealis = experiment: Mycelial growth rate method; assay type: cell-based
Sphaerotheca fuliginea [2] = experiment: Field test of sphaerotheca fuliginea; assay type: in vivo
Experimental: The test is carried out according to GB/T17980.30-2000 of pesticide field efficacy test guidelines. The survey method is to randomly take four points for each cell and survey all leaves of 2 plants per point. And investigating the sphaerotheca fuliginea incidence before the first application, and investigating the sphaerotheca fuliginea incidence 7 and 14 days after the second application respectively, and calculating the disease index and the controlling effect.

Corn big spot = experiment: Mycelial growth rate method; assay type: cell-based
Sphaerotheca fuliginea [3] = experiment: Sphaerotheca fuliginea potting method; assay type: in vivo; settings: 100 mg/L
Experimental: The fungicidal activity of the control agents and target compounds are determined. The test and investigation method refers to SOP-SC-1101 sphaerotheca fuliginea potting method in disinfectant rolls written by KANGZHUO and GUBAOGEN in “Standard operation specification for testing biological activity of pesticides”.

Erysiphe graminis = Erysiphe graminis potting method; assay type: in vivo
Experimental: The fungicidal activity of the control agents and target compounds are determined. The test and investigation method refers to SOP-SC-1116 Erysiphe graminis potting method in disinfectant rolls written by KANGZHUO and GUBAOGEN in “Standard operation specification for testing biological activity of pesticides”.

Alternaria alternata = experiment: Mycelial growth rate method; assay type: cell-based
Phytophthora infestans = assay type: cell-based
Fusarium fujikura [4] = experiment: Protective activity against rice bakanae disease; assay type: in vivo; settings: 5 μg/mL, solvent DMSO
Source text: (§1) Test of protective activity and therapeutic activity of Compound 1 against rice bakanae disease.
(§2) The test and investigation method refers to SOP-SC-1112 rice bakanae disease potting method in disinfectant rolls written by KANGZHUO and GUBAOGEN in “Standard operation specification for testing biological activity of pesticides”.
(§3) The phenamacril is a mainstream medicament for preventing and treating the rice bakanae disease at present, resistant strains are more and more along with long-time use, and […] strains showing sensitivity and one strain showing resistance to the […] are selected as test strains.
(§4) Four Fusarium fujikura SX18-32, SX18-50, SX18-59 and SX18-63 are selected for testing strains, and the current mainstream commercial bactericide phenamacril is selected as a positive control. Wherein SX18-32, SX18-50 and SX18-59 show sensitivity to phenamacril and SX18-63 show resistance to phenamacril.

succinate dehydrogenase = target: T1, succinate dehydrogenase (Sus scrofa, UniProt A5GZW8+D0VWV4+Q007T0); experiment: Enzyme activity assay, succinate dehydrogenase (DCIP reduction); assay type: biochemical, porcine; settings: read-out: Inhibitors (10 μM, SQR)
T1 construct: isolated from porcine hearts; from tissue; host or cells: porcine heart
T1 sequence (Q0QF01 43-664 partner): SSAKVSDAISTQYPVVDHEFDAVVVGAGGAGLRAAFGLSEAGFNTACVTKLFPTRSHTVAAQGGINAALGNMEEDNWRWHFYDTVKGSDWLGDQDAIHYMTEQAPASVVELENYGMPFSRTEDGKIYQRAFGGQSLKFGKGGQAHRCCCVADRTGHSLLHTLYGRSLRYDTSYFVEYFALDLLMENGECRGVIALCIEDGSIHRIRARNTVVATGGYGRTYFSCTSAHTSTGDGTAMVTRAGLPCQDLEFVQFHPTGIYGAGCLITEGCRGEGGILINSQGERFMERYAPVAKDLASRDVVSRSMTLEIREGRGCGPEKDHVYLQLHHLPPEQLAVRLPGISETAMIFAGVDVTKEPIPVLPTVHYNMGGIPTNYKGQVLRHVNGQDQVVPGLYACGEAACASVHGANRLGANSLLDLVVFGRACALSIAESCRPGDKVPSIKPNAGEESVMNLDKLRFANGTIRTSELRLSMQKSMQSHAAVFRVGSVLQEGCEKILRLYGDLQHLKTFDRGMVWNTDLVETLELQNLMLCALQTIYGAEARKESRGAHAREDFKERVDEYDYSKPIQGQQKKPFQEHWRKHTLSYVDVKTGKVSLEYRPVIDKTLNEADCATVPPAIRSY
T1 sequence (Q007T0 29-280): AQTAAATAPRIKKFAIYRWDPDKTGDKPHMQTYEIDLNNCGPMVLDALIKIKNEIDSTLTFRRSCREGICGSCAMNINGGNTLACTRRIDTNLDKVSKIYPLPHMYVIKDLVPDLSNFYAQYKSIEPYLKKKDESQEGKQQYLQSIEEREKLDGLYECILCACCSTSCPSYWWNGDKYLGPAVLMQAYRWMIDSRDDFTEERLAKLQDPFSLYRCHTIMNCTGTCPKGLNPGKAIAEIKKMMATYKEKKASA
T1 sequence (D0VWV4 30-169): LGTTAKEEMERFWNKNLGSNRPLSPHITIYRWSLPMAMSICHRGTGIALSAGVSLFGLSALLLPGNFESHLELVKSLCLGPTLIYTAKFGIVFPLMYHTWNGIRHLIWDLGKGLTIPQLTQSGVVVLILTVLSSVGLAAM
T1 sequence (A5GZW8 57-159 limits assumed): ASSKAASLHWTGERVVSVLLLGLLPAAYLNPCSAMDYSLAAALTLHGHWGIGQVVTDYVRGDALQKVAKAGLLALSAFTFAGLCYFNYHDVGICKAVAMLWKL
Summary of the method: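 Porcine heart succinate dehydrogenase (2 nM) in 100 mM sodium phosphate pH 7.4, 0.3 mM EDTA, 20 mM sodium succinate and 53 μM DCIP at 23° C with stirring. DCIP reduction followed at 600 nm (ε 21 mM^−1 cm^−1); linear slope minus baseline gives initial rate.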

Fusarium fujikura [5] = experiment: Therapeutic activity against rice bakanae disease; assay type: in vivo; settings: 5 μg/mL, solvent DMSO
Source text: as §1, §2, §3, §4

[6] = strain SX18-59 (S), listed as compound 1
[7] = strain SX18-63 (R), listed as compound 1

CON(C(=O)c1cn(C)nc1C(F)F)C(C)Cc1c(Cl)cc(Cl)cc1Cl (stereo not drawn) [Pydiflumetofen, reference compound]
Inhibition ratio (%) Alternaria solani (Alternaria solani; 1.5625 μg/mL): A (80% ≤ A ≤ 100%)
Inhibition ratio (%) Alternaria solani (Alternaria solani; 6.25 μg/mL): A (80% ≤ A ≤ 100%)
Inhibition ratio (%) Alternaria solani (Alternaria solani; 25 μg/mL): A (80% ≤ A ≤ 100%)
Inhibition ratio (%) Fusarium wilt of water melon ([1]; 1.5625 μg/mL): A (80% ≤ A ≤ 100%)
Inhibition ratio (%) Fusarium wilt of water melon ([1]; 6.25 μg/mL): A (80% ≤ A ≤ 100%)
Inhibition ratio (%) Fusarium wilt of water melon ([1]; 25 μg/mL): A (80% ≤ A ≤ 100%)
Inhibition ratio (%) Phytophthora capsici (Phytophthora capsici; 1.5625 μg/mL): B (70% ≤ B < 80%)
Inhibition ratio (%) Phytophthora capsici (Phytophthora capsici; 6.25 μg/mL): A (80% ≤ A ≤ 100%)
Inhibition ratio (%) Phytophthora capsici (Phytophthora capsici; 25 μg/mL): A (80% ≤ A ≤ 100%)
Inhibition ratio (%) Sclerotinia sclerotiorum (Sclerotinia sclerotiorum; 1.5625 μg/mL): C (C <70%)
Inhibition ratio (%) Sclerotinia sclerotiorum (Sclerotinia sclerotiorum; 6.25 μg/mL): A (80% ≤ A ≤ 100%)
Inhibition ratio (%) Sclerotinia sclerotiorum (Sclerotinia sclerotiorum; 25 μg/mL): A (80% ≤ A ≤ 100%)
Inhibition ratio (%) Gibberella zeae (Gibberella zeae; 1.5625 μg/mL): A (80% ≤ A ≤ 100%)
Inhibition ratio (%) Gibberella zeae (Gibberella zeae; 6.25 μg/mL): A (80% ≤ A ≤ 100%)
Inhibition ratio (%) Gibberella zeae (Gibberella zeae; 25 μg/mL): A (80% ≤ A ≤ 100%)
Inhibition ratio (%) Rhizoctonia cerealis (Rhizoctonia cerealis; 1.5625 μg/mL): A (80% ≤ A ≤ 100%)
Inhibition ratio (%) Rhizoctonia cerealis (Rhizoctonia cerealis; 6.25 μg/mL): A (80% ≤ A ≤ 100%)
Inhibition ratio (%) Rhizoctonia cerealis (Rhizoctonia cerealis; 25 μg/mL): A (80% ≤ A ≤ 100%)
Controlling effect % (Sphaerotheca fuliginea [2]; 100 mg/L): 92%
Inhibition ratio (%) Corn big spot (Corn big spot; 1.5625 μg/mL): A (80% ≤ A ≤ 100%)
Inhibition ratio (%) Corn big spot (Corn big spot; 6.25 μg/mL): A (80% ≤ A ≤ 100%)
Inhibition ratio (%) Corn big spot (Corn big spot; 25 μg/mL): A (80% ≤ A ≤ 100%)
Sphaerotheca fuliginea control rating (Sphaerotheca fuliginea [3]): A (80% ≤ A ≤ 100%)
Erysiphe graminis control rating (Erysiphe graminis; 6.25 mg/L): A (80% ≤ A ≤ 100%)
Erysiphe graminis control rating (Erysiphe graminis; 25 mg/L): A (80% ≤ A ≤ 100%)
Erysiphe graminis control rating (Erysiphe graminis; 100 mg/L): A (80% ≤ A ≤ 100%)
Inhibition ratio (%) Alternaria alternata (Alternaria alternata; 1.5625 μg/mL): A (80% ≤ A ≤ 100%)
Inhibition ratio (%) Alternaria alternata (Alternaria alternata; 6.25 μg/mL): A (80% ≤ A ≤ 100%)
Inhibition ratio (%) Alternaria alternata (Alternaria alternata; 25 μg/mL): A (80% ≤ A ≤ 100%)
Inhibition ratio (%) Phytophthora infestans (Phytophthora infestans; 1.5625 μg/mL): A (80% ≤ A ≤ 100%)
Inhibition ratio (%) Phytophthora infestans (Phytophthora infestans; 6.25 μg/mL): A (80% ≤ A ≤ 100%)
Inhibition ratio (%) Phytophthora infestans (Phytophthora infestans; 25 μg/mL): A (80% ≤ A ≤ 100%)

C=C(CN(C(=O)c1c(C(F)F)nn(C)c1F)C1CC1)c1ccc(Cl)cc1Cl [Compound 1]
Protective activity (Fusarium fujikura [4]; strain SX18-32 (S)): 97.4%
Protective activity (Fusarium fujikura [4]; strain SX18-32 (S), listed as compound 1): more than 90%
Protective activity (Fusarium fujikura [4]; strain SX18-59 (S)): 100.0%
Protective activity (Fusarium fujikura [4]; [6]): more than 90%
Protective activity (Fusarium fujikura [4]; strain SX18-63 (R)): 93.7%
Protective activity (Fusarium fujikura [4]; [7]): more than 90%
Inhibition ratio (%) Alternaria solani (Alternaria solani; 1.5625 μg/mL): A (80% ≤ A ≤ 100%)
Inhibition ratio (%) Alternaria solani (Alternaria solani; 6.25 μg/mL): A (80% ≤ A ≤ 100%)
Inhibition ratio (%) Alternaria solani (Alternaria solani; 25 μg/mL): A (80% ≤ A ≤ 100%)
Inhibition ratio (%) Fusarium wilt of water melon ([1]; 1.5625 μg/mL): A (80% ≤ A ≤ 100%)
Inhibition ratio (%) Fusarium wilt of water melon ([1]; 6.25 μg/mL): A (80% ≤ A ≤ 100%)
Inhibition ratio (%) Fusarium wilt of water melon ([1]; 25 μg/mL): A (80% ≤ A ≤ 100%)
Inhibition ratio (%) Phytophthora capsici (Phytophthora capsici; 1.5625 μg/mL): B (70% ≤ B < 80%)
Inhibition ratio (%) Phytophthora capsici (Phytophthora capsici; 6.25 μg/mL): A (80% ≤ A ≤ 100%)
Inhibition ratio (%) Phytophthora capsici (Phytophthora capsici; 25 μg/mL): A (80% ≤ A ≤ 100%)
Inhibition ratio (%) Sclerotinia sclerotiorum (Sclerotinia sclerotiorum; 1.5625 μg/mL): C (C <70%)
Inhibition ratio (%) Sclerotinia sclerotiorum (Sclerotinia sclerotiorum; 6.25 μg/mL): A (80% ≤ A ≤ 100%)
Inhibition ratio (%) Sclerotinia sclerotiorum (Sclerotinia sclerotiorum; 25 μg/mL): A (80% ≤ A ≤ 100%)
inhibition at 10 µM (succinate dehydrogenase): > 90%
Therapeutic activity (Fusarium fujikura [5]; strain SX18-32 (S)): 60.2%
Therapeutic activity (Fusarium fujikura [5]; strain SX18-59 (S)): 96.8%
Therapeutic activity (Fusarium fujikura [5]; [6]): 96.8%
Therapeutic activity (Fusarium fujikura [5]; strain SX18-63 (R)): 83.3%
Therapeutic activity (Fusarium fujikura [5]; [7]): far better therapeutic effect
Inhibition ratio (%) Gibberella zeae (Gibberella zeae; 1.5625 μg/mL): A (80% ≤ A ≤ 100%)
Inhibition ratio (%) Gibberella zeae (Gibberella zeae; 6.25 μg/mL): A (80% ≤ A ≤ 100%)
Inhibition ratio (%) Gibberella zeae (Gibberella zeae; 25 μg/mL): A (80% ≤ A ≤ 100%)
Inhibition ratio (%) Rhizoctonia cerealis (Rhizoctonia cerealis; 1.5625 μg/mL): C (C <70%)
Inhibition ratio (%) Rhizoctonia cerealis (Rhizoctonia cerealis; 6.25 μg/mL): B (70% ≤ B < 80%)
Inhibition ratio (%) Rhizoctonia cerealis (Rhizoctonia cerealis; 25 μg/mL): A (80% ≤ A ≤ 100%)
Controlling effect % (Sphaerotheca fuliginea [2]; 50 mg/L): 82%
Controlling effect % (Sphaerotheca fuliginea [2]; 50 mg/L, listed as compound 1): more than 80%
Controlling effect % (Sphaerotheca fuliginea [2]; 100 mg/L): 88%
Controlling effect % (Sphaerotheca fuliginea [2]; 100 mg/L, listed as compound 1): the same control effect as the current mainstream insecticides
Controlling effect % (Sphaerotheca fuliginea [2]; 200 mg/L): 92%
Inhibition ratio (%) Corn big spot (Corn big spot; 1.5625 μg/mL): A (80% ≤ A ≤ 100%)
Inhibition ratio (%) Corn big spot (Corn big spot; 6.25 μg/mL): A (80% ≤ A ≤ 100%)
Inhibition ratio (%) Corn big spot (Corn big spot; 25 μg/mL): A (80% ≤ A ≤ 100%)
pest or weed control at 100 µg/mL (Sphaerotheca fuliginea [3]; Podosphaera fuliginea, read-out: Sphaerotheca fuliginea control rating): 80 to 100%
pest or weed control at 100 µg/mL (Erysiphe graminis; Blumeria graminis, 100 mg/L, read-out: Erysiphe graminis control rating): 80 to 100%
Inhibition ratio (%) Alternaria alternata (Alternaria alternata; 1.5625 μg/mL): A (80% ≤ A ≤ 100%)
Inhibition ratio (%) Alternaria alternata (Alternaria alternata; 6.25 μg/mL): A (80% ≤ A ≤ 100%)
Inhibition ratio (%) Alternaria alternata (Alternaria alternata; 25 μg/mL): A (80% ≤ A ≤ 100%)
Inhibition ratio (%) Phytophthora infestans (Phytophthora infestans; 1.5625 μg/mL): A (80% ≤ A ≤ 100%)
Inhibition ratio (%) Phytophthora infestans (Phytophthora infestans; 6.25 μg/mL): A (80% ≤ A ≤ 100%)
Inhibition ratio (%) Phytophthora infestans (Phytophthora infestans; 25 μg/mL): A (80% ≤ A ≤ 100%)
